# Laboratory results from paper PMC9465178, “Cinnamaldehyde derivatives act as antimicrobial agents against Acinetobacter baumannii through the inhibition of cell division” (Frontiers in Microbiology, 2022).
# pIC50: −log10 of the molar value. Like-named read-outs stand apart in the source and are kept apart here. Peptide text beside a SMILES is read from it. * marks the point of attachment. βNA = c1ccc2cc(N*)ccc2c1
# Key:
# [1] = test system: Klebsiella pneumoniae ATCC 4352; assay: Antibacterial activity (MIC), microbroth dilution; format: cell-based; settings: ATCC4352; Klebsiella pneumoniae ATCC 4352; unit inferred; read-out: Antibacterial activity (MIC)
# Experimental: (§1) Reference bacterial strains were obtained from the American Type Culture Collection (ATCC). Vancomycin resistant Enterococcus faecium (VRE 734, wastewater isolate from the Venter Laboratory Collection) was isolated on Bile Esculin agar (Oxoid, Australia) containing 6 μg/mL vancomycin and identified using MALDI-TOF mass spectrometry (Bruker, Preston, Victoria, Australia, Australian Center for Antimicrobial Resistance Ecology). The Pseudomonas aeruginosa WT PAO1 and Escherichia coli with deletions of both acrA and acrB genes encoding drug efflux pumps were obtained from the Venter laboratory stock ([Welch et al., 2010]). The protocol for microbial growth was adopted from the European Committee on Antimicrobial Susceptibility Testing (EUCAST) ([European Committee for Antimicrobial Susceptibility Testing, 2016]).
# (§2) Non-fastidious bacteria and clinical isolates were maintained in Mueller Hinton (MH) broth (Acumedia, United Kingdom) supplemented with 15% (v/v) glycerol (Chem-Supply, Australia), cultured on Mueller Hinton (MH) agar (Acumedia, United Kingdom) plated and incubated at 37°C. Fastidious bacteria were maintained in Brain Heart Infusion (BHI) broth (Acumedia, United Kingdom) supplemented with 15% (v/v) glycerol at −80°C. The fastidious bacteria were cultured on MH agar plates supplemented with 5% (v/v) lysed horse blood and 3% (v/v) fetal bovine serum and incubated at 30°C in the presence of 5% CO2. Drug susceptibility assays were carried out with the non-fastidious cultures grown in cation-adjusted Mueller Hinton (CaMH) broth (Becton Dickinson, France). Streptococcus pyogenes was grown in CaMH broth supplemented with 5% (v/v) lysed horse blood and 3% (v/v) fetal bovine serum whereas Enterococcus faecium was grown in BHI broth.
# (§3) The minimum inhibitory concentrations (MICs) for all six compounds were determined using the microbroth dilution protocol as per EUCAST with an inoculum of approximately […] in an exponential growth phase ([European Committee for Antimicrobial Susceptibility Testing, 2016]). Bacterial suspension, 100 μL/well, was added to 100 μL/well of drug dilutions, then incubated for 18 h at 37°C. Fastidious bacterial suspensions were instead incubated at 30°C in the presence of 5% CO2. Bacterial growth was assessed by measuring the change in A600 nm between time 0 and 18 h (Cytation5® Cell Imaging Multi-Mode Reader, Bio-Tek®). Levofloxacin was used as the positive control. Assays were completed in duplicate in at least three independent experiments.
# [2] = test system: Klebsiella pneumoniae ATCC 33495; assay: Antibacterial activity (MIC), microbroth dilution; format: cell-based; settings: ATCC33495; Klebsiella pneumoniae ATCC 33495; unit inferred; read-out: Antibacterial activity (MIC)
# Experimental: as §1, §2, §3
# [3] = test system: Pseudomonas aeruginosa ATCC 27853; assay: Antibacterial activity (MIC), microbroth dilution; format: cell-based; settings: ATCC27853; Pseudomonas aeruginosa ATCC 27853; unit inferred; read-out: Antibacterial activity (MIC)
# Experimental: as §1, §2, §3
# [4] = test system: Escherichia coli ATCC 35218; assay: Antibacterial activity (MIC), microbroth dilution; format: cell-based; settings: ATCC35218; Escherichia coli ATCC 35218; unit inferred; read-out: Antibacterial activity (MIC)
# Experimental: as §1, §2, §3
# [5] = test system: Methicillin resistant Staphylococcus aureus; assay: Antibacterial activity (MIC), microbroth dilution; format: cell-based; settings: ATCC 43300 / MRSA; Methicillin resistant Staphylococcus aureus (MRSA ATCC 43300); unit inferred; read-out: Antibacterial activity (MIC)
# Experimental: as §1, §2, §3
# [6] = test system: Pseudomonas aeruginosa WT PAO1; assay: Antibacterial activity (MIC), microbroth dilution; format: cell-based; settings: Pseudomonas aeruginosa WT PAO1; unit inferred; read-out: Antibacterial activity (MIC)
# Experimental: as §1, §2, §3
# [7] = test system: Klebsiella pneumoniae ATCC 13883; assay: Antibacterial activity (MIC), microbroth dilution; format: cell-based; settings: ATCC13883; Klebsiella pneumoniae ATCC 13883; unit inferred; read-out: Antibacterial activity (MIC)
# Experimental: as §1, §2, §3
# [8] = test system: Enterobacter aerogenes ATCC 13408; assay: Antibacterial activity (MIC), microbroth dilution; format: cell-based; settings: Klebsiella aerogenes, ATCC13408; Enterobacter aerogenes ATCC 13408; unit inferred; read-out: Antibacterial activity (MIC)
# Experimental: as §1, §2, §3
# [9] = test system: Escherichia coli WT BW 25113; assay: Antibacterial activity (MIC), microbroth dilution; format: cell-based
# Experimental: as §1, §2, §3
# [10] = test system: Streptococcus pneumoniae (type 3, mucoid strain) ATCC 6303; assay: Antibacterial activity (MIC), microbroth dilution; format: cell-based; settings: ATCC6303; Streptococcus pneumoniae ATCC 6303; unit inferred; read-out: Antibacterial activity (MIC)
# Experimental: as §1, §2, §3
# [11] = test system: Streptococcus pyogenes ATCC 10389; assay: Antibacterial activity (MIC), microbroth dilution; format: cell-based; settings: ATCC10389; Streptococcus pyogenes ATCC 10389; unit inferred; read-out: Antibacterial activity (MIC)
# Experimental: as §1, §2, §3
# A. baumannii ATCC 19606 [12] = assay: MIC, microbroth dilution (EUCAST); format: cell-based, Acinetobacter baumannii
# Experimental: as §1, §2, §3
# A. baumannii XDR UW 5075 = assay: MIC, microbroth dilution (EUCAST); format: cell-based, Acinetobacter baumannii
# Experimental: as §1, §2, §3
# A. baumannii ATCC 19606 [13] = assay: Cell division phenotype by light microscopy; format: cell-based, Acinetobacter baumannii; settings: divin at 64 μg/mL
# Experimental: Morphological changes of bacteria when exposed to the compounds were assessed microscopically using the assay as previously described ([Chai et al., 2020]). Eppendorf® tubes were set up with A. baumannii ATCC 19606 as described for the time-kill assays. At time 0, 1, 3, 6, and 18 h, an aliquot of the bacterial suspension (1 μL) was transferred onto a glass slide and viewed under a light microscope (Olympus CX33®) at 100 × magnification. Representative images were captured using JENOPTIK GRYPHAX® imaging.
# A 1 μL aliquot was taken out at varying timepoints (0, 1, 3, 6, and 18 h) and imaged by light microscopy. The images for 6 h are depicted here. […] The white arrow indicates “grooving” site, an indication of where separation of daughter cells should take place. Scale bar is 50 μm.
# Four of the compounds (LXC 31, 33, 35 and 41) were tested at 1× and 2× their minimum inhibitory concentration (MIC) whereas LXC 36 and 43 were tested at 2× and 4× MIC. The phenotypic changes in A. baumannii morphology were analysed under a light microscope (100× magnification) at time 0, 1, 3, 6 and 18 h. Scale bar is 50 µm.
# E. coli = settings: cited from earlier work
# E. coli FtsZ [14] = settings: E. coli FtsZ; ref Domadia et al., 2007; cited from earlier work
# E. coli FtsZ [15] = test system: E. coli FtsZ; set-up: method as in Domadia et al., 2007; settings: ref Domadia et al., 2007, read-out: IC50, GTPase activity; cited from earlier work
# human red blood cells = assay: Hemolysis assay; format: cell-based
# Experimental: The hemolysis assay was performed using fresh human red blood cells (RBCs). […] These were performed in quadruplicate. Thereafter, 192 μL RBCs were added into all wells and the plates were incubated at 37°C under constant shaking (100 rpm) for 1 h. RBCs were precipitated by centrifugation of the plates (1,000× g for 3 min). An aliquot (100 μL) of each supernatant was transferred into a new 96-microwell plate and the A450 nm was determined using a PerkinElmer Enspire® plate reader. The fraction of intact RBC for each sample was determined as fraction of the intact RBCs for the sample without the addition of compounds (set at 100%) and plotted as a function of compound concentration.
# A 1% (v/v) Triton X-100 was used to indicate complete RBC lysis (^‡). […] The assays were performed in quadruplicates. The plates were incubated at 37°C while constantly shaking at 100 rpm for 1 h. Intact RBCs were removed by centrifugation and the presence of hemolytic products in the supernatant were determined by measuring the absorbance at A450 nm. The results are presented in mean ± SEM. Statistical analysis was performed using one-way ANOVA and the asterisks (*) represent statistical significance (*p < 0.05; **p < 0.005; ***p < 0.0005; ****p < 0.0001).
# [16] = test system: A. baumannii ATCC 19606 and UW 5075; assay: Outer membrane permeabilisation, nitrocefin hydrolysis; format: cell-based, Acinetobacter baumannii; settings: PAβN at 100 or 200 µg/mL, nitrocefin hydrolysis at 490 nm
# Experimental: A. baumannii ATCC 19606 and the extensively resistant strain UW 5075 were assayed for permeabilisation of the outer membrane by the efflux pump inhibitor PAβN. Nitrocefin was added to the cells that received no treatment (black circles), cells treated with the outer membrane permeabilizer polymyxin B (PMB, red squares) or PAβN at 100 µg/mL (light blue triangles) or 200 µg/mL (dark blue triangles). Nitrocefin hydrolysis by the periplasmic β-lactamase was observed as an increase in absorbance at 490 nm. Representative traces are shown from triplicate experiments performed on different days. Symbols represent the mean of triplicate readings ± SEM.
# [17] = WTBW25113, Escherichia coli WT BW 25113, unit inferred, read-out: Antibacterial activity (MIC)
# [18] = Acinetobacter baumannii, ATCC19606, A. baumannii ATCC 19606, 18 h, 37°C, read-out: MIC
# [19] = Acinetobacter baumannii, XDRUW5075, 18 h
molecule,measurement,setting,value
"CO[C@H]1/C=C/O[C@@]2(C)Oc3c(C)c(O)c4c(O)c(c(/C=N/N5CCN(C)CC5)c(O)c4c3C2=O)NC(=O)/C(C)=C\C=C\[C@H](C)[C@H](O)[C@@H](C)[C@@H](O)[C@@H](C)[C@H](OC(C)=O)[C@@H]1C [RIF, rifampicin, reference compound]",MIC,[1],> 64 µg/mL
same,MIC,[2],32 µg/mL
same,MIC,[3],32 µg/mL
same,MIC,[4],> 16 µg/mL
same,MIC,[5],32 µg/mL
same,MIC,[6],32 µg/mL
same,MIC,[7],8 µg/mL
same,MIC,[8],16 µg/mL
same,MIC,[9]; [17],> 16 µg/mL
"C[C@H]1COc2c(N3CCN(C)CC3)c(F)cc3c(=O)c(C(=O)O)cn1c23 [Levofloxacin, reference compound]",MIC,[1],1 µg/mL
same,MIC,[10],1 µg/mL
same,MIC,[2],1 µg/mL
same,MIC,[3],1 µg/mL
same,MIC,[11],1 µg/mL
same,MIC,[4],0.004 µg/mL
same,MIC,[5],1 µg/mL
same,MIC,[6],0.5 µg/mL
same,MIC,[7],1 µg/mL
same,MIC,[8],1 µg/mL
same,MIC,"[9]; Escherichia coli, WTBW25113, read-out: Antibacterial activity (MIC)",0.25 µg/mL
same,MIC,A. baumannii ATCC 19606 [12]; [18],0.5 µg/mL
same,MIC,A. baumannii XDR UW 5075; [19],8 µg/mL
"Cc1nc2ccccc2n1CCC(=O)NN=Cc1c(O)ccc2ccccc12 [divin, reference compound]",Cell morphology,A. baumannii ATCC 19606 [13],elongated cell shape
"CNC(C)C1CCC(N)C(OC2C(N)CC(N)C(OC3OCC(C)(O)C(NC)C3O)C2O)O1 (stereo not shown) [Gentamicin, reference compound]",MIC,"A. baumannii ATCC 19606 [12]; Acinetobacter baumannii, ATCC19606, 18 h",16 µg/mL
same,MIC,A. baumannii XDR UW 5075; [19],> 1020 µg/mL
O=C/C=C/c1ccccc1 [cinnamaldehyde],MIC,"E. coli; ref Domadia et al., 2007, Li et al., 2015a",1000 µg/mL
same,Mechanism of action (bacteriostatic),"E. coli; ref Domadia et al., 2007",bacteriostatic
same,"ED50, self-polymerization",E. coli FtsZ [14],6.9 µM
same,pIC50,E. coli FtsZ [15],5.24
Triton X-100 [reference compound],Hemolytic activity,human red blood cells,completely disrupt the red blood cells
"CC1(C)S[C@@H]2[C@H](NC(=O)[C@H](N)c3ccc(O)cc3)C(=O)N2[C@H]1C(=O)O [Amoxycillin, reference compound]",MIC,A. baumannii ATCC 19606 [12]; [18],64 µg/mL
same,MIC,A. baumannii XDR UW 5075; [19],1020 µg/mL
"C[C@@H](O)[C@H]1C(=O)N2C(C(=O)O)=C(SCCN=CN)C[C@H]12 [Imipenem, reference compound]",MIC,A. baumannii ATCC 19606 [12]; [18],1 µg/mL
same,MIC,A. baumannii XDR UW 5075; [19],128 µg/mL
"NC(N)=NCCC[C@H](NC(=O)[C@@H](N)Cc1ccccc1)C(=O)Nc1ccc2ccccc2c1 [PAβN, phenylalanine arginine-β-naphthylamide] (H-Phe-Arg-βNA)",Damage of the bacterial outer membrane,[16],does not damage the bacterial outer membrane
Colistin [reference compound],MIC,"A. baumannii ATCC 19606 [12]; A. baumannii ATCC 19606, 18 h, 37°C",2 µg/mL
same,MIC,"A. baumannii XDR UW 5075; A. baumannii XDR UW 5075, 18 h, 37°C",2 µg/mL
"Cc1onc(-c2ccccc2)c1C(=O)N[C@@H]1C(=O)N2[C@@H]1SC(C)(C)[C@@H]2C(=O)O [OXA, oxacillin, reference compound]",MIC,[1],> 64 µg/mL
same,MIC,[2],> 64 µg/mL
same,MIC,[3],> 64 µg/mL
same,MIC,[4],> 64 µg/mL
same,MIC,[5],16 µg/mL
same,MIC,[6],> 64 µg/mL
same,MIC,[7],> 64 µg/mL
same,MIC,[8],> 16 µg/mL
same,MIC,[9]; [17],> 64 µg/mL
